Compound | melting point [°C]
Cc1c(C)n2c3c(cccc13)CCc1ccccc1-2 | 76 to 77
CCOC(=O)Cc1csc(-c2cccc(O)c2)n1 | 95.5 to 97.2
CN1CC[C@@H]2CC(=O)c3cc(F)c(F)cc3[C@@H]2C1 (relative stereo) | > 250
Cc1c(Cc2cccc(C(F)(F)F)c2)oc2c(-c3cccc(C(=O)NCCS(C)=O)c3)cccc12 (stereo unspecified) | 146 to 147
CCOC(=O)CCCCC(=O)Oc1cccc(-c2cn3c(n2)sc2ccccc23)c1 | 90 to 92
NCCc1cccc(N2C(=O)N(c3ccccc3Br)Cc3cnc(Nc4ccccc4)nc32)c1 | 130
Cc1sc(-c2ccccc2)nc1COc1cc(COc2ccccc2CC(=O)O)on1 | 147 to 148
O=COCCCN1C(=O)c2ccccc2C1=O | 68 to 70
O=C(NC/C=C\COc1cc(CN2CCCCC2)ccn1)NC1CCCCC1 | 131 to 132
Cc1cncc(CNC(=O)c2sc(N3CCN(CC(C)C)C3=O)nc2C)n1 | 139 to 142
O=C(O)[C@@H]1CCCN1Cc1cc2cc3c(cc2c2cc(O)ccc12)OCO3 | 205 to 206
Cc1cc(C)c(S(=O)(=O)Nc2onc(C)c2Br)c(C)c1 | 92 to 95
CC1(C)OC(=O)Nc2ccc(Br)cc21 | 199 to 200
CCc1nc2c(cnn2CC)c(NC2CCOCC2)c1CNC(=O)c1cccc(C(=O)NCc2ccc(OC)c(-c3cccc(CN4CC5CC4CN5)c3)c2)c1 (stereo unspecified) | 129 to 131
CC1COc2cccc([N+](=O)[O-])c2N1 (stereo unspecified) | 60
Cc1cccc(C)c1-c1cc(Cl)cc2c1OC(CN1CCCCC1)C2 (stereo unspecified) | > 235
N#Cc1cccc2c1CCc1cc(C(F)(F)F)ccc1S2 | 113 to 114
Cc1cccc2nc(NC(=O)c3ccc(C(C)(C)C(=O)O)cc3)cn12 | 282 to 283
Cc1noc(-c2ncn3c2CN(C)C(=O)c2ccccc2-3)n1 | 257 to 260
COc1ccc(C(=O)c2csc(S(N)(=O)=O)c2)cc1 | 173 to 175
C#CCOc1cc(C(=O)O)cc([N+](=O)[O-])c1-c1ccccc1 | 145 to 147
CC(C)N(CCO)C(=O)c1noc2ccccc12 | 92 to 94
CSC(SC)=C(C#N)C(=O)c1cc(C)ccc1C | 74.5 to 75.5
COc1ccc(CC2NC(=O)NC2=O)cc1 (stereo unspecified) | 174

Compound | melting point [°C]
COc1cc2c(cc1Nc1ncc(Cl)c(N[C@@H]3CCCC[C@H]3NS(C)(=O)=O)n1)CCN(C(=O)CN(C)C)CC2 | 128 to 141
CC(C)(C)c1ccc(O)c(C=NO)c1 | 116 to 118
O=C(O)CCc1cn(Cc2ccc(OCc3cccnc3)cc2)nc1OCc1cccnc1 | 116 to 117
CC(C)C[C@H](NS(=O)(=O)c1ccc2c(c1)Sc1ccccc1O2)C(=O)O | 120 to 130
N#CC1(Nc2ccccc2)CCN(C2CCCc3ccccc32)CC1 (stereo unspecified) | 152 to 153
COc1ccc(-c2c(Cl)ncnc2Cl)cc1 | 95 to 96
CC(C)(C)c1ccc(C(=O)Nc2ccccc2C(=O)NCCc2ncc[nH]2)cc1 | 127 to 132
CCN1CN=C2SCC(O)(c3ccc(Br)cc3)N2C1 (stereo unspecified) | 132 to 134
CC(C)C(=O)N[C@@H](CSC(=O)C(C)(C)C)C(=O)NCCSC(=O)c1ccccc1 | 112 to 114
Cc1cc2[nH]cc(CSCC(=O)N3CC=C(c4ccccc4)CC3)c2cc1C | 167 to 169
Cc1ccc(NC(=O)C(C)(C)C)c(-c2cccc(Br)n2)c1 | 120 to 126
CC1=C(C(O)(c2ccc(C)cc2)C2SCSCS2)CN(C)O1 (stereo unspecified) | 150 to 152
O=C(NCC12CC3CC(CC(C3)C1)C2)c1c(Cl)ccc2nc(N3CCC(C(=O)NO)CC3)ccc12 | 189 to 196
CC(C)(C)CCn1c(=O)c(=NNc2ccccc2)c(=O)n(-c2ccccc2F)c2ccccc21 | 112 to 114
CNc1nc(-c2cncc(Br)c2)c2cc(OC)c(OC)cc2n1 | 228 to 230
CC(=O)OCC1OC(OC2C(COC(C)=O)OC(Oc3ccc(N)cc3)C(OC(C)=O)C2OC(C)=O)C(OC(C)=O)C(OC(C)=O)C1OC(C)=O (stereo unspecified) | 174 to 176
COc1ccc2cc(C(C)CC(C)=O)cc(F)c2c1 (stereo unspecified) | 38 to 39
CC12CCC3C(CC=C4C=C(N5CCCC5)CCC43C)C1CCC2=O (stereo unspecified) | 217 to 220
CC(C)NC(=O)NC(=O)c1ccnc([N+](=O)[O-])c1 | 132 to 133
O=C(O)CSc1ccc(-n2cc(C3c4ccccc4C=Cc4ccccc43)c(=S)[nH]c2=O)nn1 | 248 to 250
CCOC(=O)C(Cl)=Cc1cc(NC(=O)CC(C)CC(=O)O)ccc1Cl (stereo unspecified) | 82 to 84
CC1(C)Oc2ccc(S(=O)(=O)C(F)(F)F)cc2C(N2Cc3cccc([N+](=O)[O-])c3C2=O)C1O (stereo unspecified) | 283 to 284
O=C(Nc1ccc(-c2nnn[nH]2)cc1)Oc1ccc([N+](=O)[O-])cc1 | > 260
O=c1[nH]cc2c(c1-c1ccc(O)cc1)Nc1ccccc1S2 | > 300

Compound | melting point [°C]
CN1CCN(S(=O)(=O)c2ccc(Nc3ncnc4cc(Cl)ccc34)cc2)CC1 | 237 to 239
COc1cc2ncc(C#N)c(Nc3cccc(C#N)c3)c2cc1OC | 285 to 288
COc1c(C=Cc2ccc(C=CC3=C(C#N)C(=C(C#N)C#N)OC3(c3ccccc3)C(F)(F)F)s2)cc2c3c1CCCN3CCC2 (stereo unspecified) | 156 to 160
COC(=O)c1nc(Br)cc(Br)c1O | 181 to 183
COc1ccc(CC(=O)O)cc1C(C)(C)C | 93 to 94
Cc1nccn1-c1cc2[nH]c(=O)c(=O)n(O)c2cc1C(F)(F)F | > 300
O=C1c2ccccc2C(=O)N1CCCCCCc1cccnc1 | 90 to 92
CC(=C=CC(=O)O)c1ccc(Cl)cc1 | 146 to 148
Cn1cc(-c2cc3nccnc3[nH]2)c2cc(C(=O)NC(C)(C)CO)ccc21 | 210 to 214
CSC(Oc1cc2cc(Br)cnc2cc1C)C(=O)NC(C)(C)C (stereo unspecified) | 132 to 134
O=CNC(O)C(Cl)(Cl)CCl (stereo unspecified) | 105 to 109
Cc1ccc(-c2ncccc2OC2SCC(O)C(O)C2O)o1 (stereo unspecified) | 191
COC(=O)c1sccc1NC(=S)N1CCN(c2ncnc3cc(OC)c(OC)cc23)CC1 | 226 to 228
CCOC(=O)C(=Cc1cnccc1OC)N=[N+]=[N-] | 92 to 95
CCOC(=O)C1(C(=O)OCC)CCc2cc(Br)ccc2N1Cc1ccccc1 | 116 to 117
N#Cc1coc2ccc(Br)cc2c1=O | 193 to 200
COc1ccc(/C=C/c2ccc3c(=O)n(-c4ccccn4)ncc3c2)cc1 | 213 to 214
CC(C)(C)N1C(=O)CN(c2ccccc2)C1=O | 116
O=C(c1ccccc1)c1cc(CN2CCN(c3ccccc3)CC2)on1 | 100 to 102
CC(=O)OC1(C(C)=O)C(C)CC2C3CC(C)C4=CC(=O)C=CC4(C)C3C(O)CC21C (stereo unspecified) | 270 to 272
N#Cc1ccc(N2C(=O)N(CCCC(=O)O)C3(CCSCC3)C2=O)cc1C(F)(F)F | 197 to 198
CC(=O)NCC1CN(c2ccc(N3CCN(c4nc5cccc(F)c5o4)CC3)c(F)c2)C(=O)O1 (stereo unspecified) | 201 to 202
CC(C)(C)OC(=O)CC[C@@H](NC(=O)OCc1ccccc1)c1nnn[nH]1 | 99 to 101

Source: a melting point compilation (Tetko et al.; mined from patent text by program, amines drawn as free bases though some values may be those of a salt)
